The values below come from ChEMBL document CHEMBL1146495, “Iridoids as allelochemicals and DNA polymerase inhibitors” (J Nat Prod, 2004).

A word on the pIC50: it is the negative decadic logarithm of the IC50, by convention in mol/L. Low readings indicate a high IC50, high ones a low IC50.

Assay [1] relates to Tribolium castaneum. Kind of assay: Antifeedant activity against Tribolium castaneum assessed as feeding deterrence index at 200 ug/disk after 5 days by flour disk assay. In kind it is functional, organism-based.
Assay [2] concerns Tribolium castaneum. Kind of assay: Antifeedant activity against Tribolium castaneum assessed as efficiency of conversion of ingested food at 200 ug/disk after 5 days by flour disk assay. In kind it is functional, Instar larval stage.
Assay [3] deals with Tribolium castaneum. Description: Antifeedant activity against Tribolium castaneum assessed as relative consumption rate at 200 ug/disk after 5 days by flour disk assay. In kind it is functional.
The test system of assay [4] is Tribolium castaneum. Kind of assay: Antifeedant activity against Tribolium castaneum assessed as relative growth rate at 200 ug/disk after 5 days by flour disk assay. In kind it is functional.
Assay [5] deals with Tribolium castaneum. Description: Insecticidal activity against Tribolium castaneum fifth instar larvae assessed as mortality at 60 ug/uL, treated topically. In kind it is functional.
The subject of assay [6] is Tribolium castaneum. Kind of assay: Insecticidal activity against Tribolium castaneum fifth instar larvae assessed as pupal stage duration at 60 ug/uL, treated topically. In kind it is functional.
In assay [7] the target is DNA polymerase I, thermostable (Thermus aquaticus, UniProt P19821). Description: Inhibition of Thermus aquaticus-DNA polymerase by PCR analysis.
DNA polymerase I, thermostable, sequence (P19821 whole entry): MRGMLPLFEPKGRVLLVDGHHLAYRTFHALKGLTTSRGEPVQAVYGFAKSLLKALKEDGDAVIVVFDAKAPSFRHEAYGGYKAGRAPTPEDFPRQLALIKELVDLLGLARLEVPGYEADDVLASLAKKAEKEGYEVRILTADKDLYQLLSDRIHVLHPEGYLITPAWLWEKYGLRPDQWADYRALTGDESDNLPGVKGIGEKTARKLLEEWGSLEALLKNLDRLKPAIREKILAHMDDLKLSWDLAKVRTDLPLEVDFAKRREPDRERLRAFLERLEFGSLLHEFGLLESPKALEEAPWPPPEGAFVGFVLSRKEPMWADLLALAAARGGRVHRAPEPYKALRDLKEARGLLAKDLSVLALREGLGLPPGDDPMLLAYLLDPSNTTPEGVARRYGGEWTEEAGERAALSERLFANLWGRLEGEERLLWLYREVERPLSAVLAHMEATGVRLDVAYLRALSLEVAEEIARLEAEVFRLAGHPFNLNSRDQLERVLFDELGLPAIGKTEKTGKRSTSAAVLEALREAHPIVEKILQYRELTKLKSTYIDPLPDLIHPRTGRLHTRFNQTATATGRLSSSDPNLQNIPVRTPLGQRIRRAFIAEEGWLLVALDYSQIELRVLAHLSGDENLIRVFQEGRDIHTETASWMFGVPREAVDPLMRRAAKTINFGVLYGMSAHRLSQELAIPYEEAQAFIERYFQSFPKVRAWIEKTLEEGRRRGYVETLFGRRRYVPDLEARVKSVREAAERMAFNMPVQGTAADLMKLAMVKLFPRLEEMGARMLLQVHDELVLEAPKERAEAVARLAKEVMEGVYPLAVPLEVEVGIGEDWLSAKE
In assay [8] the target is DNA polymerase I, thermostable (Thermus aquaticus) (UniProt P19821). Description: Inhibition of Thermus aquaticus-DNA polymerase at 500 uM by PCR analysis.
DNA polymerase I, thermostable (Thermus aquaticus), sequence (P19821 whole entry): as above

pIC50: −log10 of the molar value. Active and inactive are the calls of the source. The calls are words filed in the database; no cut-off is given here.

As for `CC(=O)O[C@@]1(C)C[C@@H](O)[C@]2(O)C=CO[C@@H](O[C@@H]3O[C@H](CO)[C@@H](O)[C@H](O)[C@H]3O)[C@@H]21`, in the assay on Tribolium castaneum [1], the outcome was inactive. Also, the Activity with Tribolium castaneum [2] was -8.908%; in the assay on Tribolium castaneum [3], 0.058 mg/mg/day; in the assay with Tribolium castaneum [4], -0.004 mg/mg/day; in the assay with Tribolium castaneum [5], 56.6%; in the assay with Tribolium castaneum [6], 11.3 days. The same compound gave a pIC50 in assay [7] of 3.67.

Consider `CC(=O)OC[C@H]1O[C@@H](O[C@@H]2OC=C[C@H]3[C@H](OC(C)=O)[C@@H]4O[C@]4(COC(C)=O)[C@@H]23)[C@H](OC(C)=O)[C@@H](OC(C)=O)[C@@H]1OC(C)=O`, for which the outcome in assay [8] was inactive.

On to `CC(=O)O[C@@H]1[C@@H](OC(C)=O)[C@H](O[C@@H]2OC=C[C@H]3[C@H](OC(C)=O)[C@@H]4O[C@]4(CO[Si](c4ccccc4)(c4ccccc4)C(C)(C)C)[C@@H]23)O[C@H](CO[Si](c2ccccc2)(c2ccccc2)C(C)(C)C)[C@H]1OC(C)=O`, for which, in assay [8], the result was inactive.

In the case of `CCCCCCCC/C=C\CCCCCCCCOC[C@H]1O[C@@H](O[C@@H]2OC=C[C@H]3[C@H](O)[C@@H]4O[C@]4(COCCCCCCCC/C=C\CCCCCCCC)[C@@H]23)[C@H](O)[C@@H](O)[C@@H]1O`, the result in assay [8] was inactive.

For `OC[C@H]1O[C@@H](O[C@@H]2OCC[C@H]3[C@H](O)[C@@H]4O[C@]4(CO)[C@@H]23)[C@H](O)[C@@H](O)[C@@H]1O`, the outcome in assay [8] was inactive.

In the case of `OC[C@H]1O[C@@H](O[C@@H]2OC=C[C@H]3[C@H](O)[C@@H]4O[C@]4(CO)[C@@H]23)[C@H](O)[C@@H](O)[C@@H]1O` [CATALPOL], in the assay with Tribolium castaneum [1], the outcome was inactive. Also, the Activity is -66.101% in the assay with Tribolium castaneum [2]; 0.017 mg/mg/day in the assay on Tribolium castaneum [3]; -0.01 mg/mg/day in the assay on Tribolium castaneum [4]; 73.3% with Tribolium castaneum [5]; 8.2 days in the assay on Tribolium castaneum [6]. In assay [7], the negative logarithm of the IC50 (pIC50) was 4.32.

`C[C@]1(O)C[C@@H](O)[C@]2(O)C=CO[C@@H](O[C@@H]3O[C@H](CO)[C@@H](O)[C@H](O)[C@H]3O)[C@@H]21` [HARPAGIDE]: the pIC50 in assay [7] is 3.38.

As for `C[C@]1(O)C[C@@H](O)[C@]2(O)C=CO[C@@H](O[C@H]3O[C@H](CO)[C@@H](O)[C@H](O)[C@H]3O)[C@@H]21` [HARPAGIDE], the outcome with Tribolium castaneum [1] was inactive. For the same compound, the Activity in the assay on Tribolium castaneum [2] is -30.729%; in the assay on Tribolium castaneum [3] it was 0.019 mg/mg/day; with Tribolium castaneum [4], -0.003 mg/mg/day; with Tribolium castaneum [5], 60%; in the assay on Tribolium castaneum [6], 12.1 days.
